Experimental data published in ChEMBL document CHEMBL1201862, “PubChem BioAssay data set” (2004).
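A five-concentration, 48-hour dose response in 96-well plates underlies each endpoint, interpolated linearly between surrounding concentrations. Abbreviation: GI50, concentration required for 50% inhibition of growth.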 The source made the active and inactive calls. Cut-off read from the data, not from the text of the source: active = GI50 up to about 1.1 µM and inactive = higher.

Tests used:
Experiment in all cases: inhibition of tumour cell growth, NCI panel, 48 h
NCI-H460 = system: NCI-H460
SK-MEL-2 = system: SK-MEL-2
HT-29 = system: HT-29
Malme-3M = system: Malme-3M
NCI-H23 = system: NCI-H23
SNB-19 = system: SNB-19
NCI-H226 = system: NCI-H226
SN12C = system: SN12C
OVCAR-8 = system: OVCAR-8
UACC-62 = system: UACC-62
SNB-75 = system: SNB-75
COLO 205 = system: COLO 205
HOP-62 = system: HOP-62
UO-31 = system: UO-31
KM12 = system: KM12
K562 = system: K562
OVCAR-5 = system: OVCAR-5
CCRF-CEM = system: CCRF-CEM
SK-OV-3 = system: SK-OV-3
HL-60 = system: HL-60

Measured: GI50

CCOC(=O)[C@H]1Nc2c(cccc2[N+](=O)[O-])C2c3ccccc3CC21 (some centres not stated)
inactive: NCI-H460 > 100 µM | SK-MEL-2 > 100 µM | HT-29 18.3 µM | Malme-3M > 100 µM | NCI-H23 > 100 µM | SNB-19 > 100 µM | NCI-H226 > 100 µM | SN12C > 100 µM | OVCAR-8 > 100 µM | UACC-62 > 100 µM | SNB-75 > 100 µM | COLO 205 > 100 µM | HOP-62 > 100 µM | UO-31 > 100 µM | KM12 > 100 µM | K562 > 100 µM | OVCAR-5 > 100 µM

COc1ccc(-n2cnn3c(=O)c4cn[nH]c4nc23)cc1
inactive: NCI-H460 > 10 µM | HT-29 > 10 µM | Malme-3M > 10 µM | NCI-H23 > 10 µM | SNB-19 > 10 µM | NCI-H226 > 10 µM | CCRF-CEM > 10 µM | SN12C > 10 µM | SK-OV-3 1.49 µM | OVCAR-8 > 10 µM | SNB-75 > 10 µM | HL-60 > 10 µM | UO-31 > 10 µM | KM12 > 10 µM | K562 > 10 µM | OVCAR-5 > 10 µM

Cc1sc(N)c(S(=O)(=O)c2ccccc2)c1C
inactive: NCI-H460 > 100 µM | SK-MEL-2 > 100 µM | HT-29 > 100 µM | Malme-3M > 100 µM | NCI-H23 > 100 µM | SNB-19 > 100 µM | NCI-H226 > 100 µM | CCRF-CEM > 100 µM | SN12C > 100 µM | SK-OV-3 > 100 µM | OVCAR-8 > 100 µM | UACC-62 > 100 µM | SNB-75 > 100 µM | COLO 205 > 100 µM | HL-60 > 100 µM | UO-31 > 100 µM | KM12 > 100 µM | K562 > 100 µM | OVCAR-5 > 100 µM

CC1CNC(NS(=O)(=O)c2cc(C(=O)Nc3ccc(F)cc3)c(Cl)cc2S)=NN1 (configuration not stated)
inactive: NCI-H460 78.5 µM | SK-MEL-2 28.3 µM | HT-29 51.4 µM | Malme-3M 29.1 µM | NCI-H23 50.4 µM | SNB-19 87.1 µM | NCI-H226 36.4 µM | CCRF-CEM 42.5 µM | SN12C > 100 µM | SK-OV-3 > 100 µM | OVCAR-8 73.8 µM | UACC-62 57.3 µM | COLO 205 62.4 µM | HOP-62 75.7 µM | HL-60 > 100 µM | UO-31 > 100 µM | KM12 49.3 µM | K562 32.8 µM | OVCAR-5 59.7 µM

COC(=O)c1c(-c2ccccc2)c2sc3ccccc3n2c1N
inactive: NCI-H460 40.2 µM | SK-MEL-2 32.9 µM | HT-29 49.7 µM | Malme-3M 24.9 µM | NCI-H23 72.1 µM | SNB-19 74.3 µM | NCI-H226 > 100 µM | CCRF-CEM 52.4 µM | SN12C 33 µM | SK-OV-3 > 100 µM | OVCAR-8 58.3 µM | UACC-62 > 100 µM | SNB-75 56.1 µM | COLO 205 28.2 µM | HOP-62 31.5 µM | UO-31 85.9 µM | KM12 26.1 µM | K562 > 100 µM | OVCAR-5 > 100 µM

C#Cc1c(C)c(/C=C/C(C)=C\C(=O)OC)n(C)c1C
inactive: NCI-H460 63.7 µM | HT-29 28.6 µM | Malme-3M > 100 µM | NCI-H23 > 100 µM | SNB-19 > 100 µM | NCI-H226 > 100 µM | CCRF-CEM 33.8 µM | SN12C > 100 µM | SK-OV-3 > 100 µM | OVCAR-8 70.1 µM | UACC-62 70.8 µM | COLO 205 61.2 µM | HOP-62 71.1 µM | HL-60 6.65 µM | UO-31 63.4 µM | KM12 99.1 µM | K562 8.97 µM | OVCAR-5 > 100 µM

CCCCC(C)C1CCC2(C)C=CC(=O)C(C)=C2C1O (configuration not stated)
inactive: NCI-H460 > 100 µM | SK-MEL-2 > 100 µM | HT-29 > 100 µM | NCI-H23 > 100 µM | SNB-19 > 100 µM | NCI-H226 > 100 µM | CCRF-CEM > 100 µM | SN12C > 100 µM | SK-OV-3 > 100 µM | OVCAR-8 > 100 µM | UACC-62 > 100 µM | SNB-75 > 100 µM | COLO 205 > 100 µM | HOP-62 > 100 µM | HL-60 > 100 µM | UO-31 > 100 µM | KM12 > 100 µM | K562 > 100 µM | OVCAR-5 > 100 µM

Cc1ccc(-c2c(C#N)c(-c3ccc([N+](=O)[O-])cc3)c(C#N)c(=O)n2NS(=O)(=O)c2ccccc2)cc1
inactive: NCI-H460 32.3 µM | SK-MEL-2 44 µM | HT-29 41.8 µM | Malme-3M 29.9 µM | SNB-19 42.6 µM | NCI-H226 70.3 µM | CCRF-CEM 19 µM | SN12C 96.2 µM | SK-OV-3 22.4 µM | OVCAR-8 31.6 µM | UACC-62 20.9 µM | SNB-75 28.4 µM | COLO 205 53.1 µM | HOP-62 30.1 µM | KM12 31.6 µM | K562 39.3 µM | OVCAR-5 64.4 µM

CCCCCC1CC(C(C)=O)CN1c1ccc(F)cc1 (configuration not stated)
inactive: NCI-H460 44.4 µM | SK-MEL-2 38.9 µM | HT-29 30.8 µM | Malme-3M 54.7 µM | NCI-H23 24.8 µM | SNB-19 > 10 µM | SN12C 48.5 µM | OVCAR-8 32.3 µM | SNB-75 25.5 µM | COLO 205 48.1 µM | HL-60 > 10 µM | UO-31 37.4 µM | KM12 35.6 µM | OVCAR-5 > 100 µM

COC(=O)C1=C(C(=O)OC)C(N(C)C)C(C(=O)OC)=C(C(=O)OC)S1
inactive: NCI-H460 57.1 µM | SK-MEL-2 > 100 µM | NCI-H23 > 100 µM | SNB-19 > 100 µM | NCI-H226 > 100 µM | SN12C > 100 µM | SK-OV-3 > 100 µM | OVCAR-8 > 100 µM | UACC-62 > 100 µM | SNB-75 > 100 µM | COLO 205 > 100 µM | HOP-62 > 100 µM | UO-31 > 100 µM | KM12 > 100 µM | K562 > 100 µM | OVCAR-5 > 100 µM

COc1ccc(/C=N/NC(=O)NCCCN(C)C)cc1
inactive: NCI-H460 > 100 µM | SK-MEL-2 > 100 µM | HT-29 > 100 µM | Malme-3M > 100 µM | NCI-H23 > 100 µM | SNB-19 > 100 µM | NCI-H226 > 100 µM | CCRF-CEM > 100 µM | SN12C > 100 µM | SK-OV-3 > 100 µM | OVCAR-8 > 100 µM | UACC-62 > 100 µM | HL-60 > 100 µM | UO-31 > 100 µM | KM12 > 100 µM | K562 > 100 µM

COC(=O)CC1(CNC(=O)OCc2ccccc2)OCCO1
inactive: NCI-H460 > 100 µM | SK-MEL-2 > 100 µM | Malme-3M > 100 µM | NCI-H23 > 100 µM | SNB-19 > 100 µM | NCI-H226 > 100 µM | CCRF-CEM > 100 µM | SN12C > 100 µM | SK-OV-3 > 100 µM | OVCAR-8 > 100 µM | UACC-62 > 100 µM | SNB-75 > 100 µM | COLO 205 > 100 µM | HL-60 > 100 µM | UO-31 > 100 µM | KM12 > 100 µM | K562 > 100 µM | OVCAR-5 > 100 µM

CCOC(=O)/C(=N/Nc1ccc(Cl)cc1)N1C(=S)N(C)N=C(C)C=C1S
inactive: NCI-H460 26.7 µM | SK-MEL-2 57.7 µM | HT-29 > 100 µM | NCI-H23 39 µM | SNB-19 34.6 µM | CCRF-CEM > 100 µM | SN12C 29.6 µM | SK-OV-3 40.3 µM | OVCAR-8 23.7 µM | UACC-62 34.6 µM | SNB-75 24.2 µM | COLO 205 > 100 µM | HL-60 > 100 µM | UO-31 > 100 µM | KM12 > 100 µM | K562 > 100 µM | OVCAR-5 > 100 µM

O=C(O)c1nc2ccc(C(F)(F)F)cc2[nH]c1=O
inactive: NCI-H460 > 100 µM | SK-MEL-2 > 100 µM | HT-29 > 100 µM | Malme-3M > 100 µM | NCI-H23 > 100 µM | SNB-19 > 100 µM | NCI-H226 > 100 µM | CCRF-CEM > 100 µM | SN12C > 100 µM | SK-OV-3 > 100 µM | OVCAR-8 > 100 µM | UACC-62 > 100 µM | COLO 205 > 100 µM | HOP-62 > 100 µM | HL-60 > 100 µM | UO-31 > 100 µM | KM12 > 100 µM | K562 > 100 µM | OVCAR-5 > 100 µM

CCCCCC/C(CC(=O)CCC(=O)NCCc1ccccc1)=N\NC(=O)c1ccc2ccccc2c1O
inactive: NCI-H460 36.5 µM | SK-MEL-2 20 µM | HT-29 55.3 µM | Malme-3M 42.4 µM | NCI-H23 31.6 µM | SNB-19 59.8 µM | NCI-H226 55 µM | CCRF-CEM 10.3 µM | SN12C 49.5 µM | OVCAR-8 29.4 µM | UACC-62 22 µM | SNB-75 78.5 µM | COLO 205 54.2 µM | HOP-62 36.7 µM | HL-60 7.78 µM | UO-31 35.4 µM | KM12 35.1 µM | OVCAR-5 21.5 µM

COc1ccc2c(c1)/C(=C/CCN(C)C)c1ccccc1S2
inactive: NCI-H460 > 100 µM | HT-29 76.6 µM | NCI-H23 > 100 µM | SNB-19 > 100 µM | NCI-H226 > 100 µM | CCRF-CEM 54.6 µM | SN12C > 100 µM | SK-OV-3 > 100 µM | OVCAR-8 > 100 µM | SNB-75 27.5 µM | COLO 205 18.8 µM | HL-60 48.5 µM | UO-31 27 µM | KM12 > 100 µM | K562 46.1 µM
